What was measured:
Format in all cases: cell-based, human
K562 or PANC-1 cells = test: Cytokine release assay: IFN-γ ELISA after co-culture of NKR-2 T cells with cancer cells; details: cells cultured with PI3K inhibitor (5 μM CAL101), compared with blocking NKG2D antibody
Protocol: Fresh NKR-2 T cells and/or control tCD19 cells were incubated with K562 or PANC-1 cells at a ratio of 1:1 in X-Vivo 15 containing 5% HS. Following an incubation of 24 h supernatants were harvested and IFN-γ measured by ELISA (R&D Systems, SIF50) according to manufacturer's protocol. As a positive control cells were activated with PMA (Sigma-Aldrich, P8139-5MG) and ionomycin (Sigma-Aldrich, 10634-1MG). To assess the background levels of activation the cells received no stimulus.
Antibody Inhibition Assay NKR-2 T cells were incubated with 1 μg/mL of NKG2D blocking antibody, isotype control or no antibody for 24 hours and subsequently NKR-2 T cells mediated secretion of IFN-γ measured. Similarly, NKR-2 cells were co-cultured with cancer cells in the presence of antibody and cytokine secretion measured.

NKG2D (CD314) = test: Flow cytometry of NKG2D (CD314) cell surface expression on NKR-2 T cells
Protocol: (§1) (A) MFI of NKG2D expression on NKR-2 T cells treated or not with increasing concentrations of LY294002. Data shown are mean±SD of N=3 independent donors. (B) Transduced T cells were cultured in complete X-vivo (100 IU/ml IL-2) supplemented or not with increasing concentrations of LY294002 for expansion. T cells were analyzed 96 h after seeding for fold expansion relative to the initial cell seeding density. Data shown are mean±SD of N=3 independent donors. (C) Viability of cells after cryopreservation. NKR-2 T cells were produced in presence of increasing concentration of LY294002. After production, cells were harvested, washed, and formulate for cryopreservation. After cryopreservation, cells were thawed using a water bath and resuspended in Plasmalyte/Human Serum Albumin (HSA) 5%. Cells viability was directly assessed after thawing (T0 h) or after 6 hours at 4° C. in Plasmalyte/HSA5% (T6 h) (N=[…]) (D) NKR-2 T cells were produced in presence of increasing concentration of LY294002. […] After 48 hours, cell viability was assessed using trypan blue staining (N=3) and normalized for the number of cells at cryopreservation (E) tCD19 T cells were co-cultured with NKR-2 T cells generated from the same donor in presence of increasing concentrations of blocking Ab (from 0 (−) to 10 μg/ml). […] Following a 24 h incubation, supernatants were harvested and IFN-γ measured (N=3). […]

NKR-2 T cells = test: Fold expansion / cell yield of NKR-2 (NKG2D CAR) T cells during manufacturing culture; details: compared to cells without inhibition of NKG2D signaling
Protocol: as §1, with “After cryopreservation, cells were thawed using a water bath and resuspended in Plasmalyte/Human Serum Albumin (HSA) 5%.” left out
FIG. 9: NKR-2 T cells Ab blockade process adaptation restores CD4/CD8 ratio. […] PANC-1 viability was assessed every 2 hours by the IncuCyte S3 device. […]

CC[C@H](Nc1ncnc2[nH]cnc12)c1nc2cccc(F)c2c(=O)n1-c1ccccc1 [Cal-101, idelalisib]
IFN gamma secretion post co-culture with K562 cells (K562 or PANC-1 cells): produce more interferon

O=c1cc(N2CCOCC2)oc2c(-c3ccccc3)cccc12 [LY294002]
concentration at which NKG2D expression reaches the level of control tCD19 T cells (NKG2D (CD314)): 10 µM

Nc1cccc(-c2cc3c(Oc4cccc(O)c4)ncnc3[nH]2)c1 [TWS119]
expansion with downstream inhibitors of the PI3K pathway (NKR-2 T cells): expansion is increased

From patent publication US11639496B2, “Reducing fratricide of immune cells expressing NKG2D-based receptors” (CELYAD S.A, priority 2017, dated 2023)
